Measured values taken from patent US20170014487A1, “Method for treating ocular inflammation” (THE TRUSTEES OF COLUMBIA UNIVERSITY IN THE CITY OF NEW YORK, priority 2014, published 2017).

System: ICAM-1
Experiment: Western blot of TNF-α-induced ICAM-1 expression in SV40-HCEC cells
Format: cell-based, human
Conditions: 1-μM secretin
Protocol: Experiments were conducted to set up an in vitro model for dry eye syndrome, using cell cultures of immortalized human cells from the cornea or conjunctiva using the SV40-HCEC corneal cell line of SV40 virus-immortalized corneal cells (12). SV40-HCEC cells were shown using immunofluorescence of anti-oxytocin receptor antibodies to contain oxytocin receptors in the plasma membrane (FIG. 4A, oxytocin receptor fluorescence is in red [top panel]; blue represents nuclear staining with DAPI stain [bottom panel]), consistent with the results showing its presence in rodent conjunctiva and cornea. Moreover, the presence of secretin receptors in SV40HCEC cells was shown using Western blot (FIG. 4B, the presence of secretin receptor migrating at the expected size [arrow]). M: Marker, S: Sample/secretin receptor. The lower band in the sample lane represents degradation product.
A Western blot-based assay was developed to assess for the role of oxytocin and secretin in dry eye syndrome in vitro. The expression of the […] ICAM-1 in SV40-HCEC cells was induced by adding the pro-inflammatory cytokine TNF-α [13]. In vivo, ICAM-1 acts to recruit neutrophils to sites of inflammation, and thus acts as a surrogate for inflammation in vitro.

Substance: secretin: neuropeptide; endocrine hormone of the glucagon family, commercially available as SecreFlo
- Reduction of rate of accumulation of ICAM-1: about two-fold
